In PubChem BioAssay (NCI):
Values after ≈ are worked out from the molar mass of the structure shown. Values joined by “and” are separate entries in the source; they are usually repeats but may differ in a detail not shown here. Identical values can stand only once.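 Dose response: 5 concentrations. Exposure: 48 h. Format: 96-well plates. Endpoint: linear interpolation; highest concentration if not reached. GI50: concentration for 50% inhibition of growth. At the TGI there is no net growth.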 Active and inactive are the calls of the source. Cut-off read from the data, not from the text of the source: active = GI50 below about 0.43 µM; inactive = the rest.

Columns and labels:
Test in all cases: NCI-60 cell line screen, 48 h
BT-549 breast = system: BT-549 breast
DLD-1 colon = system: DLD-1 colon
DMS 114 small cell lung = system: DMS 114 small cell lung
HOP-18 NSCLC = system: HOP-18 NSCLC
M19-MEL melanoma = system: M19-MEL melanoma
XF 498 CNS = system: XF 498 CNS
MDA-N = system: MDA-N
LXFL 529 NSCLC = system: LXFL 529 NSCLC
SNB-78 CNS = system: SNB-78 CNS
RXF-631 renal = system: RXF-631 renal

With `COc1ccc(-c2nsc3c2NC(=O)CC3c2cccc(F)c2)cc1` (stereo not given) the GI50 (BT-549 breast) was 7.77 µM and the TGI (BT-549 breast) was greater than 100 µM.
With `Cc1c(C(=O)/C=C/c2ccc(Cl)cc2)nnn1-c1ccnc2c(C(F)(F)F)cccc12` the GI50 (BT-549 breast) was greater than 100 µM and the TGI (BT-549 breast) was greater than 100 µM.
For `COc1ccc2[nH]cc(Cc3c[nH]c4ccc(OC)cc34)c2c1`, the GI50 (BT-549 breast) was 17.4 µM and the TGI (BT-549 breast) was 36.1 µM.
With `N#Cc1ccc(O)c(C2=NCC(c3ccc(-c4ccccc4)cc3)O2)c1` (stereo not given) the GI50 (BT-549 breast) was 1.37 µM and the TGI (BT-549 breast) was 16.1 µM.
`O=C1C(c2ccccc2)=[N+]([O-])c2cc([N+](=O)[O-])ccc21` was tested, and the TGI (DLD-1 colon) was 46.9 µM, the TGI (DMS 114 small cell lung) was 27.3 µM and the TGI (HOP-18 NSCLC) was greater than 100 µM. The TGI (M19-MEL melanoma) was 32.9 µM and the TGI (XF 498 CNS) was 39.3 µM.
`O=C(CCN1CCCC1)Nc1ccc2c(Nc3ccc(Br)cc3)c3ccccc3nc2c1` was tested, and the GI50 (BT-549 breast) was 1.44 µM and the TGI (BT-549 breast) was 3 µM.
`CC(C)c1ccc(C(c2c(O)c3ccccc3oc2=O)c2c(O)c3ccccc3oc2=O)cc1` showed a TGI (BT-549 breast) of 39.9 µM and a TGI (MDA-N) of 46.8 µM.
`COc1ccc(C(=O)/C=C/c2c(C(F)(F)F)nc3ccccn23)cc1OC` showed a GI50 (BT-549 breast) of 2.34 µM and a TGI (BT-549 breast) of 43.4 µM.
In the case of `COc1ccc(C2CC(c3ccc4ccccc4c3)=NN2c2nc(O)c(C3=c4cc(Cl)ccc4=NC3=O)s2)cc1` (stereo not given), the GI50 (BT-549 breast) was 0.0499 µM and < 0.005 µM.
Molecule `Cc1cc(=O)n2c(cc3cccccc32)n1` has a TGI (LXFL 529 NSCLC) greater than 100 µM and a TGI (SNB-78 CNS) greater than 100 µM.
With `CCOP(=O)(OCC)C(NC(c1ccccc1)c1ccccc1)c1ccsc1` (stereo not given) the GI50 (BT-549 breast) was 27.5 µM and the TGI (BT-549 breast) was 52.3 µM.
`CC(C)c1ccc(C(O)(C(=O)O)c2ccc(C(C)C)cc2)cc1` gave a TGI (BT-549 breast) greater than 100 µM and a TGI (MDA-N) greater than 100 µM.
`COc1ccc(Cl)cc1Nc1nc(C(F)(F)F)ccc1C(=O)N/N=C/c1ccccc1Cl` showed a GI50 (BT-549 breast) of 1.79 µM and a TGI (BT-549 breast) of 8.82 µM.
Work on `Cc1ccc2c(c1)C(=O)/C(=C/c1cccc(OCC(=O)c3ccc(Cl)cc3)c1)CS2` yielded a GI50 (BT-549 breast) of 12.8 µM and a TGI (BT-549 breast) of 33.8 µM.
`NS(=O)(=O)c1ccc(-n2nc(-c3ccccc3)cc2-c2cc(O)ccc2O)cc1` was tested, and the GI50 (BT-549 breast) was greater than 100 µM and the TGI (BT-549 breast) was greater than 100 µM.
In the case of `Nc1nc(N)c(CCCCc2ccccc2)c(/C=C/c2ccc([N+](=O)[O-])cc2)n1`, the TGI (DLD-1 colon) was greater than 100 µM, the TGI (DMS 114 small cell lung) was 4.29 µM and the TGI (M19-MEL melanoma) was 30.3 µM. It also gave a TGI (SNB-78 CNS) of 12.8 µM and a TGI (XF 498 CNS) of 3.74 µM.
Molecule `C=C1C(=O)O[C@H]2C3OC3(C)CC/C=C(/C(=O)OC)[C@@H](OC(C)=O)[C@H](OC(=O)C3(C)OC3C)[C@H]12` (stereo not given in full) has a TGI (BT-549 breast) of 2.27 µM, a GI50 (DMS 114 small cell lung) of 0.604 µg/mL (≈ 1.3 µM) and a TGI (DMS 114 small cell lung) of 1.8 µg/mL. The outcome (HOP-18 NSCLC) was “inactive”, the outcome (LXFL 529 NSCLC) was “inactive” and the GI50 (M19-MEL melanoma) was 1.94 µg/mL (≈ 4.17 µM). The TGI (M19-MEL melanoma) was 5.17 µg/mL, the TGI (MDA-N) was 3.46 µM and the GI50 (SNB-78 CNS) was 1.81 µg/mL (≈ 3.89 µM). The TGI (SNB-78 CNS) was 6.79 µg/mL.
Molecule `CC(O)(c1ccc(OCCC[N+](C)(C)C)cc1)C(C)(O)c1ccc(OCCC[N+](C)(C)C)cc1` (stereo not given) has a TGI (DLD-1 colon) greater than 100 µM, a TGI (DMS 114 small cell lung) greater than 100 µM and a TGI (HOP-18 NSCLC) greater than 100 µM. It also gave a TGI (LXFL 529 NSCLC) greater than 100 µM and a TGI (SNB-78 CNS) greater than 100 µM.
In the case of `COc1ccc2c(c1)C(=O)/C(=C/c1cccc(OCC(=O)c3ccc([N+](=O)[O-])cc3)c1)CO2`, the GI50 (BT-549 breast) was 1.91 µM and the TGI (BT-549 breast) was 4.85 µM.
`COC(=O)c1cc2c([nH]c3ccccc32)c(-c2nc3ccccc3cc2CO)n1` gave a GI50 (BT-549 breast) greater than 100 µM and a TGI (BT-549 breast) greater than 100 µM.
`CCCCNP1(NCCCC)=NP(NCCCC)(NCCCC)=NP(NCCCC)(NCCCC)=NP(NCCCC)(NCCCC)=N1` showed a GI50 (BT-549 breast) of 4.08 µM and a TGI (BT-549 breast) of 15.3 µM.
For `C[C@H]1[C@H](C)CC[C@]2(C(=O)O)CCC3(COC(=O)/C=C/c4ccc(O)cc4)C(=CCC4[C@@]5(C)CC[C@H](O)C(C)(C)C5CC[C@]43C)[C@H]12` (stereo not given in full), the TGI (DLD-1 colon) was 15.8 µM, the TGI (DMS 114 small cell lung) was 32 µM and the TGI (HOP-18 NSCLC) was 33.9 µM. It also gave a TGI (LXFL 529 NSCLC) of 24.8 µM, a TGI (M19-MEL melanoma) greater than 100 µM and a TGI (RXF-631 renal) of 30.4 µM. It also gave a TGI (SNB-78 CNS) greater than 100 µM.
